pIC50: −log10 of the molar value. Active and inactive are the calls of the source. No rule for the calls is given here.

The values that follow come from PubChem BioAssay AID489023 (Sanford-Burnham Center for Chemical Genomics, 2010).

This experiment has as its system 697B cells, BCR-induced NF-kB luciferase reporter luminescence. Description: B-cell receptor NF-kB reporter inhibition – 697B cells, luciferase luminescence, dose response (AID 489023).

As to `O=C(CN1C(=O)c2ccccc2S1(=O)=O)c1ccc(Cl)cc1Cl`, the pIC50 is 6.36.

In the case of `CCCS(=O)(=O)Nc1cccc(-c2ccc3nnc(C)n3n2)c1`, the IC50 is > 80 µM (inactive).

For `COc1ccc(/C=C2\SC(=O)N(CCCC(=O)Nc3ccc(C(=O)O)cc3)C2=O)cc1OC`, the negative-log IC50 (pIC50) was 5.11.

Turning to `COc1ccc(/C=C2/SC(=S)N(CCCC(=O)Nc3ccc(O)cc3)C2=O)cc1`, the pIC50 is 6.36.

Consider `CCn1c(=O)cc(OCC(=O)Nc2ccc(OC)c(OC)c2)c2ccccc21`, for which the IC50 was > 80 µM (inactive).

For `CC(C)(C)c1ccc(-c2noc(CCC(=O)NCC3CCCO3)n2)cc1` (stereo not given), the pIC50 is 6.68.

On to `Cc1nc2cc(-c3ccccc3)nn2c(C)c1CCC(=O)N1CCC2(CC1)OCCO2`, for which the IC50 is > 80 µM (inactive).

As to `COc1ccc(/C=N\NC(=O)c2sccc2C)cc1Cn1nc(C)cc1C`, the IC50 was 55.9 µM (inactive).

Consider `Cc1ccc(C(=O)CSc2nnc(COc3cc(C)cc(C)c3)o2)cc1`, for which the IC50 was > 80 µM (inactive).

Regarding `Nc1ccccc1SCC(=O)Nc1nc(-c2ccccc2)cs1`, the IC50 is > 80 µM (inactive).

Turning to `O=C(Oc1cccc(/C=N/Nc2nc(N3CCOCC3)nc(N3CCOCC3)n2)c1)c1ccco1`, the negative logarithm of the IC50 (pIC50) is 4.74.

Turning to `CC(C)C(=O)Nc1ccc(NC(=O)c2ccc3c(c2)OCO3)cc1`, the negative logarithm of the IC50 (pIC50) was 4.76.

Regarding `Cc1ccc(C(=O)C[n+]2cc(-c3ccc(C)cc3)n3c2CCCCC3)cc1`, the IC50 is 38.9 µM (inactive).

For `Cc1[nH]c2ccccc2c1/C=N/Nc1nc(Nc2ccc(F)cc2)nc(N2CCOCC2)n1`, the negative-log IC50 (pIC50) is 5.91.

On to `COC(=O)c1c(-c2ccc(N(C)C)cc2)sc2ccc(OC)cc12`, for which the IC50 is > 80 µM (inactive).

Take `Cc1ccc(NC(=O)O/N=C/c2c(C)nn(C(C)(C)C)c2C)cc1Cl`: the negative logarithm of the IC50 (pIC50) is greater than 6.80.

Regarding `Cc1ccc(Nc2nc(N3CCOCC3)nc(N3CCOCC3)n2)cc1C`, the negative-log IC50 (pIC50) was 5.88.

For `Cn1c(=O)cc(OCCCC(=O)N2CCCCC2)c2ccccc21`, the IC50 is > 80 µM (inactive).

As to `O=C(Nc1cccc(Oc2ccc3c(c2)C(=O)NC3=O)c1)c1cccs1`, the IC50 is > 80 µM (inactive).

Consider `COc1ccc(-n2c(-c3ccc(Br)cc3)c[n+]3c2CCc2ccccc2-3)cc1`, for which the IC50 is > 80 µM (inactive).

`O=C(N/N=C/c1ccc(Cl)cc1Cl)c1ccc(-n2cnnn2)cc1`: the IC50 was > 80 µM (inactive).

With `COc1ccc(/C=N/OCC(=O)NC(c2ccccc2)c2ccccc2)cc1OC`, the IC50 is > 80 µM (inactive).

`CCC(=O)N1c2ccccc2[C@@H](N(C(C)=O)c2ccccc2)C[C@H]1C`: the IC50 was 58.2 µM (inactive).

For the molecule `Cc1ccc2nc(NC(=O)CSCC(=O)OCC(=O)c3ccc(Br)cc3)sc2c1`, the negative logarithm of the IC50 (pIC50) was 5.44.

As for `Cc1nn(C)c(C)c1CN(C)S(=O)(=O)c1ccc2ccccc2c1`, the IC50 is > 80 µM (inactive).

Consider `Cc1cc(C)nc(Sc2ccc([N+](=O)[O-])cc2[N+](=O)[O-])n1`, for which the pIC50 was 5.71.

For `CC1=CC(C)(C)Nc2ccc(OC(=O)CN3C(=O)CCC3=O)cc21`, the pIC50 was 5.07.

Regarding `C=CCOC(=O)COc1cc(C)cc2oc(=O)c3c(c12)CCC3`, the IC50 was > 80 µM (inactive).

Take `O=C(N/N=C/c1cccnc1)c1cc(-c2ccccc2OCc2ccccc2)n[nH]1`: the pIC50 is 5.17.

On to `CCOC(=O)Cc1csc(NC(=S)NC(=O)c2ccc(Cl)cc2)n1`, for which the IC50 was 30.6 µM (inactive).

Regarding `CC(C)Cn1c([N+](=O)[O-])nc2c1c(=O)[nH]c(=O)n2C`, the negative-log IC50 (pIC50) was 5.25.

Regarding `Cc1cc(-c2cc(C(=O)NCc3ccccc3)on2)nc(S(C)(=O)=O)n1`, the negative-log IC50 (pIC50) is 5.41.

On to `CCN1C(=O)c2cccc3c(S(=O)(=O)N4CCC(C)CC4)ccc1c23`, for which the IC50 is 49.3 µM (inactive).

Take `CCN(CC(=O)Nc1c(F)cccc1F)C(=O)c1cc([N+](=O)[O-])ccc1N1CCCCC1`: the pIC50 is 4.87.

`CCN(CC(=O)Nc1c(F)cccc1F)C(=O)c1cc(S(=O)(=O)N2CCOCC2)ccc1N1CCCC1`: the negative logarithm of the IC50 (pIC50) was 4.90.

As to `O=C(NNC(=O)C12CC3CC(CC(Br)(C3)C1)C2)c1ccccc1F`, the negative logarithm of the IC50 (pIC50) was 4.92.

With `CC1(c2nnc(-c3cccc(Cl)c3)o2)CC(c2cccc(Cl)c2)=NO1` (stereo not given), the IC50 was > 80 µM (inactive).

On to `CC1Cc2ccccc2N1S(=O)(=O)c1cnc(Cl)c(Br)c1` (stereo not given), for which the IC50 was 72.9 µM (inactive).

On to `Cc1nc2cc(-c3ccccc3)nn2c(C)c1CCC(=O)NCc1ccco1`, for which the IC50 was > 80 µM (inactive).

As for `CCn1c(=S)[nH]c2cc(S(=O)(=O)N3CCCCC3)ccc21`, the IC50 was 31 µM (inactive).

On to `COc1ccc(-c2noc(N3CCC(C(=O)Nc4cccc(OC)c4)CC3)n2)cc1`, for which the IC50 was > 80 µM (inactive).

In the case of `CCSc1ncc(Cl)c(C(=O)Nc2sc3c(c2C(=O)NCc2cccnc2)CCCC3)n1`, the IC50 was > 80 µM (inactive).

For the molecule `C=C1C(=O)[C@@]23C[C@H]4[C@@H]5[C@@]6(C)CCC[C@@]57[C@@H]2[C@@H](O)[C@@H]1C[C@H]3[C@H]7N4C6`, the pIC50 is 5.54.

`COc1ccc(-c2noc(N3CCC(C(=O)Nc4ccc(OC)c(OC)c4)CC3)n2)cc1`: the IC50 was > 80 µM (inactive).

Regarding `CC1=CC(C)(C)Nc2ccc(OC(=O)C(C)N3C(=O)c4ccccc4C3=O)cc21` (stereo not given), the negative-log IC50 (pIC50) is 5.16.

For the molecule `CC(=O)c1cn(CCOc2cc(C)ccc2C)c2ccccc12`, the IC50 was > 80 µM (inactive).

As for `CC(C)CN(C(=O)COC(=O)C12CC3CC(CC(C3)C1)C2)c1c(N)n(Cc2ccccc2)c(=O)[nH]c1=O`, the negative logarithm of the IC50 (pIC50) was 5.24.

Consider `CC(C)N1C(=O)S/C(=C/c2ccc3c(c2)n(C)c(=O)n3C)C1=O`, for which the IC50 is > 80 µM (inactive).

With `CC(=O)c1cccc(S(=O)(=O)Nc2cc(C(F)(F)F)ccc2N2CCOCC2)c1`, the IC50 is > 80 µM (inactive).

In the case of `CCOC(=O)C1CCN(c2ncnc3c2cnn3-c2ccc(OC)cc2)CC1`, the IC50 is > 80 µM (inactive).

With `CCOc1ccc(-c2nc(CSCC(=O)NCc3ccco3)c(C)o2)cc1`, the negative logarithm of the IC50 (pIC50) is 6.49.

As to `CC1CCN(CCCNC(=O)COc2cc(=O)n(C)c3ccccc23)CC1`, the IC50 was > 80 µM (inactive).

As for `CCOc1ccc(-c2nnc(SCC(=O)NC3CC3)o2)cc1`, the IC50 is 62 µM (inactive).

Take `COc1ccc(/C=C\C(=O)O[C@@H]2C(O)C(O[C@@H]3OC(C)[C@H](O[C@@H]4OCC(O[C@H]5O[C@H](CO)[C@@H](O)C(O)C5O)C(O)C4O)C(O)C3O)[C@H](OC(=O)[C@]34CCC(C)(C)C[C@@H]3C3=CCC5[C@@]6(C)CC(O)C(O[C@@H]7OC(CO)C(O)[C@H](O)[C@H]7O)[C@@](C)(C(=O)O)C6CC[C@@]5(C)[C@]3(CO)CC4)O[C@H]2C)cc1` (stereo not given in full): the pIC50 was 4.70.

Turning to `N=c1ccn2c(n1)O[C@H]1[C@H](O)[C@@H](CO)O[C@H]12`, the negative-log IC50 (pIC50) was greater than 6.80.

As for `CCN1C(=O)c2cccc3c(NC(=O)c4cccc(N5C(=O)CCC5=O)c4)ccc1c23`, the IC50 is > 80 µM (inactive).

`C#CCN(Cc1ccccc1)S(=O)(=O)C=C`: the IC50 was 21.3 µM (inactive).

`CCOc1cc2nc(-c3ccc(OC)c(OC)c3)nc(N3CCOCC3)c2cc1OC`: the pIC50 is 5.31.

Turning to `COc1ccc(NC(=O)c2cc(-c3ccccn3)nc3ccccc23)cc1S(=O)(=O)N(C)C`, the negative-log IC50 (pIC50) is 5.11.

Consider `CCN(CC(=O)Nc1c(F)cccc1F)C(=O)C1(c2ccccc2)CC1`, for which the negative-log IC50 (pIC50) is 4.84.

Regarding `Cn1c(=O)cc(OCCCC(=O)NC2CCCC2)c2ccccc21`, the IC50 was 34.4 µM (inactive).

Turning to `CC(C)(C)C(=O)/C(=C/c1ccncc1)n1cncn1`, the negative-log IC50 (pIC50) is 5.50.

For `CCN1C(=O)Nc2cccc3cccc1c23`, the IC50 is 35.2 µM (inactive).

For the molecule `COc1ccc(-c2noc(CCCC(=O)O)n2)cc1`, the pIC50 is 5.67.

For `COc1ccc2nc(C)cc(Sc3nc4ccccc4s3)c2c1`, the negative-log IC50 (pIC50) is 5.74.

With `CCC(C)NC(=O)c1c(N)n(/N=C/c2ccccn2)c2nc3ccccc3nc12` (stereo not given), the IC50 was 23.2 µM (inactive).

For `CCCNC(=O)c1ccc(N2CCC3(CC2)CC(c2cccc(Br)c2)=NO3)c(NC(=O)c2ccc(Cl)c([N+](=O)[O-])c2)c1`, the IC50 was > 80 µM (inactive).

Take `CCOC(=O)N1CCN(c2ncnc3c2[nH]c2ccc(OC)cc23)CC1`: the IC50 is 60 µM (inactive).

On to `N#Cc1ccccc1COc1ccc(/C=C/C(=O)O)cc1`, for which the negative-log IC50 (pIC50) is 4.83.

`CC(C)c1ccc(/C=C2\SC(=S)N(CCC(=O)N3CCCCC3CCO)C2=O)cc1` (stereo not given): the pIC50 is 5.79.

As for `CCn1c(=O)cc(SCC(=O)N2CCN(C)CC2)c2ccccc21`, the IC50 is > 80 µM (inactive).

In the case of `Cc1ccc(-c2nn3c(C)nnc3c3ccccc23)cc1S(=O)(=O)NC(C)(C)CO`, the IC50 was 29.6 µM (inactive).

Turning to `COc1cccc(Cn2nnc(C(=O)Nc3cc(Cl)ccc3OC)c2N)c1`, the IC50 is > 80 µM (inactive).

Consider `CSc1ccc(-c2nc(CSCC(=O)NC3CC3)c(C)o2)cc1`, for which the pIC50 was 5.61.

Turning to `COc1ccc(NS(=O)(=O)c2cc(NC(=O)c3cc(=O)c4ccccc4o3)ccc2OC)cc1`, the IC50 was > 80 µM (inactive).

With `Cn1cnc([N+](=O)[O-])c1Sc1ccc([N+](=O)[O-])cc1`, the pIC50 is 5.44.

Take `COc1ccc(-c2nn(C)c(=O)c3ccccc23)cc1NS(C)(=O)=O`: the IC50 was 39.9 µM (inactive).

In the case of `CCOc1ccc(/C=C2\SC(=S)N(CCC(=O)Nc3cccc(C(=O)O)c3)C2=O)cc1`, the negative logarithm of the IC50 (pIC50) was 5.05.

On to `COc1ccc(-c2noc(N3CCC(C(=O)Nc4ccc(F)cc4F)CC3)n2)cc1`, for which the IC50 is > 80 µM (inactive).

With `CCOc1ccc(NC(=O)CCCc2cc(-c3ccc(OCC)cc3)on2)cc1`, the pIC50 is 5.71.

As to `COc1ccc(Cc2nc(-c3ccc(NC(=O)c4cccnc4)cc3)no2)cc1`, the IC50 is > 80 µM (inactive).

As to `Cc1cccc(C(=O)Nc2ccc(CC(=O)O)cc2)c1`, the IC50 is 24.1 µM (inactive).

`Cc1ccc(-c2nn3c(C)nnc3c3ccccc23)cc1S(=O)(=O)NCCN1CCOCC1`: the IC50 is 31.5 µM (inactive).

Regarding `CCN(CC(=O)Nc1c(F)cccc1F)C(=O)c1cc(S(=O)(=O)N(CC)CC)ccc1N1CCCCC1`, the negative logarithm of the IC50 (pIC50) was 5.39.

In the case of `CCOc1ccc(-c2noc(CCC(=O)O)n2)cc1`, the pIC50 is 5.39.

A word on the pIC50: it is the IC50 on a negative log10 scale, so that one unit is a factor of ten. In general, IC50 refers to the point on the concentration scale where inhibition reaches its midpoint.
